Test results from US20160045505A1, “COMPOUNDS AND COMPOSITIONS FOR THE TREATMENT OF PARASITIC DISEASES” (NOVARTIS AG, priority 2013, published 2016).
Like-named read-outs stand apart in the source and are kept apart here.

Legend:
[1] = tested on: Leishmania donovani axenic amastigote parasites; assay: Leishmania donovani axenic amastigote proliferation assay (Cell TiterGlo luminescence, 2 day incubation); format: cell-based; details: Leishmania donovani, L. donovani axenic amastigotes; read-out: L. donovani amastigotes EC50
[2] = tested on: L. donovani HU3 strain in mouse peritoneal macrophages; assay: Assay for proliferation of Leishmania parasites in infected mouse peritoneal macrophages (SybrGreen staining, high-content imaging, 5 days); format: cell-based, Leishmania donovani; details: Leishmania donovani, Peritoneal macrophage, L. donovani in mouse peritoneal macrophages; read-out: L. donovani Macrophage EC50
[3] = tested on: Trypanosoma brucei Lister 427 strain, bloodstream form; assay: Assay for proliferation of kinetoplastid parasite Trypanosoma brucei (Cell Titer Glo, 48 hours); format: cell-based; details: Trypanosoma brucei
Outline: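 Bloodstream-form T. brucei Lister 427 in HMI-9 medium was exposed to compound (DMSO vehicle) for 48 hours at 37° C, 5% CO2. Parasite growth was read as ATP by CellTiter-Glo luminescence, with EC50 calculated from percent inhibition.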

[4] = tested on: Trypanosoma cruzi amastigotes (Tulahuen strain expressing Lac-Z) cultured in 3T3 fibroblast cells; assay: microbe, parasite or virus in culture; format: cell-based; details: Trypanosoma cruzi, TULAHUEN, Fibroblast, T. cruzi amastigotes in 3T3 fibroblast cells; read-out: T cruzi EC50
[5] = T. brucei Lister 427 bloodstream form, read-out: T. brucei EC50

Row | SMILES | EC50 [1] [nM] | EC50 [2] [nM] | EC50 [3, 5] [µM] | EC50 [4] [nM] | EC50 ([3]; read-out: T. brucei EC50 (μM)) [µM]
1 | Cc1nc(C)c(C(=O)Nc2ccc(F)c(-c3cn4cc(-c5cncc(F)c5)cnc4n3)c2)o1 [Compound 443] | 81 | 146 | 0.034 | 103 | 
2 | Cc1nc(C)c(C(=O)Nc2ccc(F)c(-c3cn4cc(-c5ccncc5F)cnc4n3)c2)o1 [Compound 444] | 86 | 183 | 0.025 | 50 | 
3 | Cc1ccc(-c2cnc3nc(-c4cc(NC(=O)c5oc(C)nc5C)ccc4F)cn3c2)nc1 [Compound 445] | 12 | 688 | 0.031 | 14 | 
4 | Cc1nc(C)c(C(=O)Nc2ccc(F)c(-c3cn4cc(-c5cnc(C(C)C)cn5)cnc4n3)c2)o1 [Compound 446] | 33 | 146 | 0.161 | 122 | 
5 | Cc1nc(C)c(C(=O)Nc2ccc(F)c(-c3cn4cc(-c5ncc(F)cc5F)cnc4n3)c2)o1 [Compound 447] | 36 | 1380 | 0.103 | 20 | 
6 | Cc1ccc(-c2cnc3nc(-c4cc(NC(=O)c5oc(C)nc5C)ccc4F)cn3c2)nn1 [Compound 448] | 108 | 5150 | 0.157 | 798 | 
7 | Cc1nc(C)c(C(=O)Nc2ccc(F)c(-c3cn4cc(-c5ncccc5F)cnc4n3)c2)o1 [Compound 449] | 28 | 54 | 0.056 | 22 | 
8 | Cc1nc(C)c(C(=O)Nc2ccc(F)c(-c3cn4cc(-c5ccc(CCN(C)C)cc5)cnc4n3)c2)o1 [Compound 450] | 4620 | 2990 | 0.499 | 397 | 
9 | CNCCc1ccc(-c2cnc3nc(-c4cc(NC(=O)c5oc(C)nc5C)ccc4F)cn3c2)cc1 [Compound 451] | 6470 | 1930 | 0.968 | 1950 | 
10 | Cc1cnc(-c2cnc3nc(-c4cc(NC(=O)c5oc(C)nc5C)ccc4F)cn3c2)cn1 [Compound 452] | 19 | 61 | 0.097 | 45 | 
11 | Cc1nc(C)c(C(=O)Nc2ccc(F)c(-c3cn4cc(-c5ncccc5C)cnc4n3)c2)o1 [Compound 453] | 17 | 23 | 0.021 | 15 | 
12 | Cc1cccc(-c2cnc3nc(-c4cc(NC(=O)N5CCCC5)ccc4F)cn3c2)n1 [Compound 455, N-(4-fluoro-3-(6-(6-methylpyridin-2-yl)imidazo[1,2-a]pyrimidin-2-yl)phenyl)pyrrolidine-1-carboxamide] | 225 | 681 | 0.134 | 215 | 
13 | O=C(Nc1ccc(Cl)c(-c2cn3cc(-c4ccccn4)cnc3n2)c1)N1CCCC1 [Compound 456, N-(4-chloro-3-(6-(pyridin-2-yl)imidazo[1,2-a]pyrimidin-2-yl)phenyl)pyrrolidine-1-carboxamide] | 42 | 218 |  | 40 | 0.054
14 | COc1cccc(-c2cnc3nc(-c4cc(NC(=O)c5oc(C)nc5C)ccc4F)cn3c2)n1 [Compound 458] | 75 | 513 | 0.12 | 43 | 
15 | CC(C)Nc1cnc2nc(-c3cc(NC(=O)N4CC(F)(F)C4)ccc3F)cn2c1 [Compound 460, 3,3-difluoro-N-(4-fluoro-3-(6-(isopropylamino)imidazo[1,2-a]pyrimidin-2-yl)phenyl)azetidine-1-carboxamide] | 241 | 208 | 0.164 | 182 | 
16 | CC(C)Nc1cnc2nc(-c3cc(NC(=O)N4CC[C@@H](F)C4)ccc3F)cn2c1 [Compound 461] | 234 | 185 | 0.055 | 232 | 
17 | Cc1ncc(C(=O)Nc2ccc(F)c(-c3cn4cc(NC(C)C)cnc4n3)c2)o1 [Compound 462] | 174 | 403 | 0.129 | 151 | 
18 | Cc1nc(C)c(C(=O)Nc2ccc(F)c(-c3cn4cc(NCC(C)C)cnc4n3)c2)o1 [Compound 463] | 571 | 507 | 0.238 | 163 | 
19 | CCC(C)Nc1cnc2nc(-c3cc(NC(=O)c4oc(C)nc4C)ccc3F)cn2c1 (stereo not drawn) [Compound 464] | 470 | 672 | 0.109 | 148 | 
20 | Cc1nc(C)c(C(=O)Nc2ccc(F)c(-c3cn4cc(NCC(C)(C)C)cnc4n3)c2)o1 [Compound 465] | 329 | 289 | 0.153 | 146 | 
21 | CN(C)c1cnc2nc(-c3cc(NC(=O)N4CC(F)(F)C4)ccc3F)cn2c1 [Compound 466] | 158 | 207 | 0.044 | 183 | 
